In ChEMBL document CHEMBL3885861, “Open TG-GATES”:

Species: Rattus norvegicus
Experiment: Open TG-GATES - Regimen: Single
Format: toxicity, organism-based, Sprague-Dawley
Set-up: regimen Single, gender Male, age 6 weeks
Conditions: in vivo, po, 100 mg/kg, route gavage, dose level High; for APTT / Bas / Eos / Fbg / Hb / Ht / Lym / MCH / MCHC / MCV / Mono / Neu / PT / Plat / RBC / Ret / WBC: tissue Blood; for KIDNEY_L / KIDNEY_R / KIDNEY_TOTAL: tissue Kidney; for LIVER: tissue Liver; for A/G / ALP / ALT / AST / BUN / CRE / Ca / Cl / DBIL / GLC / IP / K / LDH / Na / PL / RALB / TBIL / TC / TG / TP / gamma-GTP: tissue Plasma

## OCCOCCN1CCN(C(c2ccccc2)c2ccc(Cl)cc2)CC1 (configuration not stated) [HYDROXYZINE]
3 h
  TERMINAL_BW: 192.6 g
  APTT: 16.4 s
  Bas: 0.2%
  Eos: 0.8%
  Fbg: 276.2 mg/dL
  Hb: 12.4 g/dL
  Ht: 38.5%
  Lym: 79.6%
  MCH: 21.5 pg
  MCHC: 32.3%
  MCV: 66.5 fL
  Mono: 2.8%
  Neu: 16%
  PT: 16 s
  Plat: 107.8 x10_4/uL
  RBC: 579.6 x10_4/ul
  Ret: 9.2%
  WBC: 66.5 x10_2/uL
  KIDNEY_L: 0.9 g
  KIDNEY_R: 0.9 g
  KIDNEY_TOTAL: 1.8 g
  LIVER: 8.5 g
  A/G: 0.9
  ALP: 1704.8 IU/L
  ALT: 45.4 IU/L
  AST: 78 IU/L
  BUN: 10.2 mg/dL
  CRE: 0.2 mg/dL
  Ca: 10.7 mg/dL
  Cl: 105.8 meq/L
  DBIL: 0.008 mg/dL
  GLC: 167.2 mg/dL
  IP: 9.5 mg/dL
  K: 4.4 meq/L
  LDH: 107.6 IU/L
  Na: 142.4 meq/L
  PL: 132.4 mg/dL
  RALB: 2.5 g/dL
  TBIL: 0.048 mg/dL
  TC: 65.8 mg/dL
  TG: 40 mg/dL
  TP: 5.4 g/dL
  gamma-GTP: 1 IU/L
6 h
  TERMINAL_BW: 190.6 g
  APTT: 16.5 s
  Bas: 0%
  Eos: 0.8%
  Fbg: 260.2 mg/dL
  Hb: 12.8 g/dL
  Ht: 39.9%
  Lym: 80.4%
  MCH: 21.2 pg
  MCHC: 32.1%
  MCV: 65.8 fL
  Mono: 2.6%
  Neu: 15.6%
  PT: 16 s
  Plat: 118.2 x10_4/uL
  RBC: 606.4 x10_4/ul
  Ret: 8.5%
  WBC: 87.3 x10_2/uL
  KIDNEY_L: 0.9 g
  KIDNEY_R: 0.9 g
  KIDNEY_TOTAL: 1.8 g
  LIVER: 7.9 g
  A/G: 0.8
  ALP: 1674.2 IU/L
  ALT: 39.8 IU/L
  AST: 78.2 IU/L
  BUN: 8.6 mg/dL
  CRE: 0.2 mg/dL
  Ca: 10.7 mg/dL
  Cl: 106.8 meq/L
  DBIL: 0.01 mg/dL
  GLC: 180.8 mg/dL
  IP: 9.7 mg/dL
  K: 4.2 meq/L
  LDH: 64.2 IU/L
  Na: 141.8 meq/L
  PL: 121.8 mg/dL
  RALB: 2.4 g/dL
  TBIL: 0.062 mg/dL
  TC: 63.8 mg/dL
  TG: 28 mg/dL
  TP: 5.3 g/dL
  gamma-GTP: 1 IU/L
9 h
  TERMINAL_BW: 190.3 g
  APTT: 15.9 s
  Bas: 0.2%
  Eos: 0.8%
  Fbg: 288.6 mg/dL
  Hb: 13 g/dL
  Ht: 40.5%
  Lym: 78.8%
  MCH: 21.5 pg
  MCHC: 32%
  MCV: 67.2 fL
  Mono: 2.8%
  Neu: 16.6%
  PT: 15.6 s
  Plat: 116.3 x10_4/uL
  RBC: 603.4 x10_4/ul
  Ret: 8.6%
  WBC: 75.7 x10_2/uL
  KIDNEY_L: 0.9 g
  KIDNEY_R: 0.9 g
  KIDNEY_TOTAL: 1.8 g
  LIVER: 7.7 g
  A/G: 0.9
  ALP: 1671.6 IU/L
  ALT: 36.2 IU/L
  AST: 76.6 IU/L
  BUN: 8.2 mg/dL
  CRE: 0.2 mg/dL
  Ca: 10.6 mg/dL
  Cl: 106.6 meq/L
  DBIL: 0.016 mg/dL
  GLC: 182.4 mg/dL
  IP: 10.6 mg/dL
  K: 4.3 meq/L
  LDH: 63 IU/L
  Na: 142 meq/L
  PL: 124.4 mg/dL
  RALB: 2.5 g/dL
  TBIL: 0.066 mg/dL
  TC: 64.6 mg/dL
  TG: 34.2 mg/dL
  TP: 5.4 g/dL
  gamma-GTP: 1 IU/L
24 h
  TERMINAL_BW: 198.7 g
  APTT: 16.8 s
  Bas: 0%
  Eos: 0.8%
  Fbg: 253.6 mg/dL
  Hb: 13.3 g/dL
  Ht: 40.4%
  Lym: 78.4%
  MCH: 22.2 pg
  MCHC: 32.9%
  MCV: 67.4 fL
  Mono: 3.6%
  Neu: 16.4%
  PT: 16.8 s
  Plat: 123.7 x10_4/uL
  RBC: 599.6 x10_4/ul
  Ret: 7.7%
  WBC: 74.7 x10_2/uL
  KIDNEY_L: 0.9 g
  KIDNEY_R: 0.9 g
  KIDNEY_TOTAL: 1.9 g
  LIVER: 9 g
  A/G: 0.8
  ALP: 1880 IU/L
  ALT: 45.6 IU/L
  AST: 75.8 IU/L
  BUN: 15.6 mg/dL
  CRE: 0.2 mg/dL
  Ca: 11.1 mg/dL
  Cl: 107 meq/L
  DBIL: 0.016 mg/dL
  GLC: 181.6 mg/dL
  IP: 7.7 mg/dL
  K: 4.2 meq/L
  LDH: 76 IU/L
  Na: 141.4 meq/L
  PL: 135 mg/dL
  RALB: 2.6 g/dL
  TBIL: 0.06 mg/dL
  TC: 75.4 mg/dL
  TG: 52.2 mg/dL
  TP: 5.6 g/dL
  gamma-GTP: 0.6 IU/L
